Measurements published in BindingDB's records for doi:10.1016/S0960-894X(00)80421-7 (1992).

Test: Tested for the ability to inhibit Ins(1,4,5)P 3-phosphatase

OC1C(O)C(OP(O)(O)=S)C(OP(O)(O)=S)C(O)C1OP(O)(O)=S (stereo not drawn) [(-)-chiro-inositol 1,4,6-trisphosphorothioate]
Ki: 978 µM
